{"source": "paper PMC5651845", "about": "“A New Generation of Arachidonic Acid Analogues as Potential Neurological Agent Targeting Cytosolic Phospholipase A2” (Scientific Reports, 2017)", "key": {"[1]": {"experiment": "PAMPA with porcine brain lipids (BBB permeation)", "settings": "for order of Pe values of reference compounds: similar conditions", "procedure": "Thus to explore whether 2i is able to penetrate into the brain, we used PAMPA with porcine brain lipids as the lipid barrier. […] A minimum Pe of […] × 10^−6 cm/s has been cited as the threshold for permeability across the blood brain barrier.\nThe Parallel Artificial Membrane Permeability Assay (PAMPA) was used to determine the effective permeability (Pe) of 2i. The method reported by Di et al.[53] was followed with modifications. Determinations were carried out on MultiScreen-IP PAMPA assay (donor) plates (MAIPNTR10) and MultiScreen Receiver Plates (MATRNPS50) from Millipore Corporation (USA) with porcine polar brain lipids (Avanti Polar Lipids Inc, Alabaster, AL) as the lipid barrier.\nAn aliquot (5 µL) of 2% porcine brain lipids in dodecane (ReagentPlus®, Sigma Aldrich, USA) was dispensed into the donor well. A stock solution (5 mM) of 2i prepared in DMSO was diluted with 1x phosphate buffer (PBS, pH 7.4) to give a 50 µM solution. An aliquot (300 µL) of the solution was dispensed into the donor well and an equal volume of buffer (1xPBS with 1% DMSO) was added to the corresponding acceptor well. The donor and acceptor plates were assembled, the unit was placed in a humidified box and gently agitated on a mini shaker at room temperature (25 °C) for 16 h. After this time, aliquots (200 µL) were withdrawn from the donor and acceptor wells, diluted separately to 1 mL with PBS, and quantified at λmax of 290 nm on a Shimadzu UV-1800 Spectrophotometer.\n300 µL aliquots of stock solutions (500 µM, 1xPBS, 0.1% DMSO) were dispensed to donor wells as described earlier. Quantification was by UV at λmax of 272 nm (caffeine), 284 nm (carbamazepine), 330 nm (quinidine), 280 nm (dopamine) and 288 nm (propanolol). […] Pe was obtained from (3):3 Pe=−2.303×{VAVD/[(VA+VD)×A×t]}×log{1−[(VA+VD)/(VD.S)]×CA(t)/CD(0)} where VA and VD are the volumes of acceptor (cm^3) and donor (cm^3) wells respectively, A is the area of the surface area of the membrane (0.24 cm^2), t is the permeation time (s). The Pe of each compound was obtained from at least 3 separate experiments using 2 different stock solutions. For each independent determination, triplicates (3 wells) were run for each compound."}, "[2]": {"molecular_target": "T1, sPLA2, human recombinant type V (Homo sapiens, UniProt P39877)", "T1 construct": "purchased Cayman Chemical 10009563", "T1 sequence (P39877 21-138)": "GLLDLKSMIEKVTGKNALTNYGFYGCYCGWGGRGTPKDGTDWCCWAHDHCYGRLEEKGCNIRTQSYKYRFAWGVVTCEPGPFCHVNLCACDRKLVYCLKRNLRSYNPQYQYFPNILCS", "experiment": "EnzChek phospholipase A2 fluorogenic assay (selectivity) with sPLA2", "type": "biochemical", "settings": "10 μM", "procedure": "To further explore their selectivity towards cPLA2, 10 μM of 2g and 2i were evaluated for their inhibition against recombinant sPLA2 using the fluorogenic PLA2 assay (Fig. 3C).\nThe assay was conducted as described above. Instead of adding cPLA2, it was replaced by sPLA2. 48 μL of 1X phospholipase A2 reaction buffer was added into each well of a 96-wells plate. This was followed by addition of 1 μL of sPLA2, human recombinant type V (10009563, Cayman Chemical) and 1 μL of 1 mM of the respective compound or thioetheramide-PC (62750, Cayman Chemical) dissolved in DMSO. The final concentration of the test compound achieved is 10 μM. The reaction was initiated by adding 50 μL of the substrate solution and incubating at room temperature for 1 h. Fluorescence was measured using a Varioskan plate reader by exciting at 485 nm, while fluorescence emission was detected at 515 nm. Positive control was performed when 1 μL of test compound was replaced by vehicle DMSO. % activity was expressed as the mean value of duplicate wells from four experiments. % activity was calculated by the following formula:2 %activity=fluorescenceoftestedwell−background/fluorescenceofpostivecontrol−background"}, "HEK293T cells": {"test_system": "HEK293T cells", "experiment": "MTS cell proliferation assay on HEK293T cells", "type": "cell-based, human", "settings": "10 μM, 48 h and 72 h, vs vehicle control", "procedure": "(§1) To explore whether the inhibitors are cytotoxic, MTS assay were conducted on BV-2 cells, a murine microglial cell line derived from post-natal mouse cerebella, and HEK293T cells that are derived from human embryonic kidney. Both cell types were treated with 10 μM of 1a, 2g and 2i for 48 h and 72 h (Fig. 3A,B). Dimethyl sulfoxide (DMSO) vehicle control was also included as the compounds were dissolved in DMSO.\n(§2) Cells were plated on a 96-wells plate and grown for 24 h to a density of 8000 cells per well for both HEK293T and BV-2 cells. Cells were cultured at 37 °C under a 5% CO2 environment in 100 μL of culture medium. Thereafter, the compound of interest dissolved in culture medium at a concentration of 10 μM was replaced into each well. DMSO was added as vehicle in the control group. 3 biological replicates were performed. The plates were then incubated at 37 °C with 5% CO2 for 48 h and 72 h. At each individual time point, 20 μL of CellTiter 96® AQueous One Solution (MTS reagent) was added into each well and re-incubated at 37 °C with 5% CO2 without light for 3 h. Colorimetric readings were taken using a Varioskan plate reader at 490 nm and analyzed. Three independent biological repeats with four technical replicates were performed."}, "BV-2 cells": {"test_system": "BV-2 cells", "experiment": "MTS cell proliferation assay on BV-2 cells", "type": "cell-based, murine", "settings": "10 μM, 48 h and 72 h, vs vehicle control", "procedure": "as §1, §2"}, "recombinant cPLA2 [3]": {"molecular_target": "T2, recombinant cPLA2 (Homo sapiens, UniProt P47712)", "T2 construct": "purchased US Biological P4074-03R", "T2 sequence (P47712 1-749)": "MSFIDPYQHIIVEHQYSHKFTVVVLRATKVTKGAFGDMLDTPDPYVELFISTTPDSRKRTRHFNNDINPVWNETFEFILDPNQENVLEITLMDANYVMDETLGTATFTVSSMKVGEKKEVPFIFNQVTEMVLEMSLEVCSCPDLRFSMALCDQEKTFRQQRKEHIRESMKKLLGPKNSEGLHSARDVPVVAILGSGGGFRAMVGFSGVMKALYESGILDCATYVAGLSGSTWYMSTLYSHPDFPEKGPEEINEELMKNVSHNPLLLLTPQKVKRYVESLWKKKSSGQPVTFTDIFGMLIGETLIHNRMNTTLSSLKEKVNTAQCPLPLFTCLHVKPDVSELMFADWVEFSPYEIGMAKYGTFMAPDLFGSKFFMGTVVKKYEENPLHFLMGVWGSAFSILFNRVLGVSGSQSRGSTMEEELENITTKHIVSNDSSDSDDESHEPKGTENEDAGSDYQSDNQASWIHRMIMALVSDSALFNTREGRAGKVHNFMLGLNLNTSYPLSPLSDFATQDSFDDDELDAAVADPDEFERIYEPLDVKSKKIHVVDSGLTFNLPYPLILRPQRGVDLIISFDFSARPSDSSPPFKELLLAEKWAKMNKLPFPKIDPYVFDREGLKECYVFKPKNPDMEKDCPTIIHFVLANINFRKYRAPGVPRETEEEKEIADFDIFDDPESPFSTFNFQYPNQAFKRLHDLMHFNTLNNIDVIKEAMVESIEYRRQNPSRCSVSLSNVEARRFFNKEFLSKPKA", "experiment": "EnzChek phospholipase A2 fluorogenic assay (IC50)", "type": "biochemical", "procedure": "The assay was conducted as described above. Instead of adding a fixed concentration of the test compound, various concentrations of compound were reconstituted in DMSO. 48 μL of 1X phospholipase A2 reaction buffer were added into each well of a 96-wells plate. This was followed by addition of 1 μL of recombinant cPLA2 (P4074-03R, US Biological) and 1 μL of the respective concentration of the test compound dissolved in DMSO. The reaction was initiated by adding 50 μL of the substrate solution and incubating at room temperature for 1 h. Fluorescence was measured using a Varioskan plate reader by exciting at 485 nm, while fluorescence emission was detected at 515 nm. Positive control was performed when 1 μL of test compound was replaced by vehicle DMSO. IC50 was expressed as the mean value of duplicate wells from three experiments."}, "recombinant cPLA2 [4]": {"molecular_target": "T2, recombinant cPLA2", "experiment": "EnzChek phospholipase A2 fluorogenic assay (% activity) at 10 μM", "type": "biochemical", "settings": "10 μM compound; for remaining activity at 10 µM: 1 h, room temperature", "procedure": "The compounds were evaluated with a fluorogenic PLA2 assay kit (EnzChek® Phospholipase A2 Assay Kit, Catalog No: E10217) at a standard 10 μM concentration. Potential inhibitors were determined by their ability to lower cPLA2 activity to a greater extent than 1a.\nThe assay was conducted according to the manufacturer’s instruction (E10217, Molecular Probes) with slight modification. Briefly, substrate solution was separately prepared by mixing 5 μL of DOPG, 5 μL of DOPC and 5 μL of substrate respectively in 1.5 mL of 1X phospholipase A2 reaction buffer. The mixture was vortexed vigorously for 3 min before allowing to stand at room temperature for 1 h. 48 μL of 1X phospholipase A2 reaction buffer were added into each well of a 96-wells plate. This was followed by addition of 1 μL of recombinant cPLA2 (P4074-03R, US Biological) and 1 μL of 1 mM of the respective compound dissolved in DMSO. The final concentration of the test compound achieved is 10 μM. The reaction was initiated by adding 50 μL of the substrate solution and incubating at room temperature for 1 h. Fluorescence was measured using a Varioskan plate reader (Thermo Scientific, MA, USA) by exciting at 485 nm, while fluorescence emission was detected at 515 nm. Positive control was performed when 1 μL of test compound was replaced by vehicle DMSO. % activity was expressed as the mean value of duplicate wells from three experiments. % activity was calculated by the following formula1 %activity=fluorescenceoftestedwell−background/fluorescenceofpostivecontrol−background"}, "[5]": {"molecular_target": "T1, sPLA2, human recombinant type V", "parameters": "method as in PMID 2303420", "settings": "cited from earlier work"}}, "data": [{"compound": "C=C[C@H]1C[N@@]2CC[C@H]1C[C@@H]2[C@@H](O)c1ccnc2ccc(OC)cc12", "note": "[quinidine]", "values": [{"measurement": "order of Pe values of reference compounds", "setting": "[1]", "value": "propranolol > carbamazepine > quinidine > caffeine > dopamine"}]}, {"compound": "CCCCC/C=C\\C/C=C\\C/C=C\\C/C=C\\CCCCC(=O)NCCCCC(=O)O", "note": "[2g]", "values": [{"measurement": "sPLA2 activity", "setting": "[2]; relative to DMSO control", "value": 184, "unit": "%"}, {"measurement": "cytotoxicity (MTS) on HEK293T cells", "setting": "HEK293T cells", "value": "no significant toxic effects"}, {"measurement": "cytotoxicity (MTS) on BV-2 cells", "setting": "BV-2 cells", "value": "no significant toxic effects"}, {"measurement": "IC50", "setting": "recombinant cPLA2 [3]", "value": "5.3 ± 0.3", "unit": "µM"}, {"measurement": "fold stronger cPLA2 inhibition than 1a (from IC50)", "setting": "recombinant cPLA2 [3]; relative to 1a", "value": 3, "unit": "fold"}, {"measurement": "inhibition at 10 µM", "setting": "recombinant cPLA2 [4]", "value": 84.5, "unit": "%"}, {"measurement": "remaining activity at 10 µM", "setting": "recombinant cPLA2 [4]", "value": "15.5 ± 0.3", "unit": "%"}]}, {"compound": "NCCc1ccc(O)c(O)c1", "note": "[dopamine]", "values": [{"measurement": "order of Pe values of reference compounds", "setting": "[1]", "value": "propranolol > carbamazepine > quinidine > caffeine > dopamine"}]}, {"compound": "O=C1NC(=O)/C(=C/c2ccc(C(=O)NC[C@@H]3C[C@@H](SC(c4ccccc4)(c4ccccc4)c4ccccc4)CN3C(=O)c3ccccc3C(=O)c3ccc(F)cc3F)cc2)S1", "note": "[pyrrophenone]", "values": [{"measurement": "effective permeability (Pe)", "setting": "[1]; porcine brain lipids, 16 h, 25 °C", "value": "2.00 ± 0.05 × 10^−6 cm/s"}]}, {"compound": "CCCCCCCCCCCCCCCCSC[C@H](COP(=O)(O)OCC[N+](C)(C)C)NC(=O)CCCCCCCCCCCCCCC", "note": "[Thioetheramide-PC, reference compound]", "values": [{"measurement": "reduction of sPLA2 activity", "setting": "[2]", "value": 62, "unit": "%"}, {"measurement": "IC50", "setting": "[5]", "value": 2, "unit": "µM"}]}, {"compound": "NC(=O)N1c2ccccc2C=Cc2ccccc21", "note": "[carbamazepine]", "values": [{"measurement": "order of Pe values of reference compounds", "setting": "[1]", "value": "propranolol > carbamazepine > quinidine > caffeine > dopamine"}]}, {"compound": "CC(C)NCC(O)COc1cccc2ccccc12", "note": "(centres unmarked) [propranolol]", "values": [{"measurement": "order of Pe values of reference compounds", "setting": "[1]", "value": "propranolol > carbamazepine > quinidine > caffeine > dopamine"}]}, {"compound": "Cn1c(=O)c2c(ncn2C)n(C)c1=O", "note": "[caffeine]", "values": [{"measurement": "order of Pe values of reference compounds", "setting": "[1]", "value": "propranolol > carbamazepine > quinidine > caffeine > dopamine"}]}, {"compound": "CCCCC/C=C\\C/C=C\\C/C=C\\C/C=C\\CCCC(=O)C(F)(F)F", "note": "[1a, arachidonyl trifluoromethyl ketone, reference compound]", "values": [{"measurement": "cytotoxicity (MTS) on HEK293T cells", "setting": "HEK293T cells", "value": "no statistical differences in cell survival"}, {"measurement": "cytotoxicity (MTS) on BV-2 cells", "setting": "BV-2 cells", "value": "no statistical differences in cell survival"}, {"measurement": "IC50", "setting": "recombinant cPLA2 [3]", "value": "16.5 ± 3", "unit": "µM"}, {"measurement": "inhibition at 10 µM", "setting": "recombinant cPLA2 [4]", "value": 60, "unit": "%"}, {"measurement": "remaining activity at 10 µM", "setting": "recombinant cPLA2 [4]", "value": "40 ± 0.9", "unit": "%"}]}]}
